{"source": "paper PMC10372009", "about": "“Molecular basis of GDF15 induction and suppression by drugs in cardiomyocytes and cancer cells toward precision medicine” (Scientific Reports, 2023)", "assay_type_in_all_cases": "cell-based, human", "key": {"[1]": {"test_system": "GDF15", "experiment": "GDF15 secretion (ELISA) by hiPSC-CMs upon cardiotoxic drug treatment", "settings": "48 h; for fold increase of media concentration of GDF15: sublethal and highest (10 µM) concentrations, normalized by DMSO-only control; for GDF15 protein concentration: 1 µM drug", "description": "As many anticancer drugs are cardiotoxic and GDF15 is a well-known biomarker for heart failure, we employed a human induced pluripotent stem cell-derived cardiomyocytes (hiPSC-CMs) model to investigate the effect of drug-induced cardiotoxicity on GDF15 expression in host tissues. To adequately replicate cardiotoxicity using this model, we selected drugs whose cardiotoxic effect in vivo is based on cytotoxicity to cardiomyocytes.\nFigure 2 Effect of cardiotoxic drugs on hiPSC-CMs viability and GDF15 secretion and modes of action of applied drugs. (A) hiPSC-CMs viability after 48 h treatment with 20 cardiotoxic drugs. (B) Fold-change of GDF15 expression upon 48 h treatment with 20 cardiotoxic drugs and their reported modes of action. GDF15 expression upon treatment with 10 µM, sublethal drug concentrations and maximal GDF15 induction (from concentration series depicted in (C)). Mean fold-change of 4 biological replicates with a 95% confidence interval were normalized by DMSO-only control. (C) Drug-induced GDF15 expression for different drug concentrations. Fold-change of GDF15 protein concentration upon 48 h treatment with ten cardiotoxic drugs (marked with * in A and B).\n(§1) Cardiotoxic drug (SCREEN-WELL® Cardiotoxicity library, BML-2850, ENZO) library was prepared by serial dilution of 10 mM stocks in DMSO to 9 different concentrations ranging from 0.001 to 10 mM, which were further diluted into assay plates to final concentrations ranging from 0.001 to 10 µM. […] The final concentration of DMSO for hiPSC-CMs assay was 0.1%. To investigate the influence of BET inhibitor treatment on doxorubicin induced GDF15 mRNA expression, hiPSC-CMs were pre-treated with 20 nM or 200 nM doxorubicin for 48 h and kept in medium without compound for 24 h before 24 h treatment with either 100 nM BI 894999 or 500 nM OTX015. […] Cancer cell lines were treated with 10 nM, 35 nM or 100 nM of BI 894999 for 4 h or 24 h (Supplementary Table S3).\n(§2) For GDF15 mRNA quantification, total RNA was isolated from the cells using an RNeasy kit (Qiagen, 74106) to synthesize cDNA using a Taqman Reverse Transcription kit (Applied Biosystems, N8080234). Quantitative real-time PCR analysis was performed using QuantiNova SYBR Green PCR Kit (Qiagen, 208052) on a CFX96 Real-Time System (Bio-Rad) under the following amplification conditions: 95 °C for 2 min followed by 40 cycles of 95 °C for 5 s and 60 °C for 10 s. The primer sequences are GDF15-F: 5′-[…]-3′, GDF15-R: 5′-[…]-3′, ACTB-F: 5′-[…]-3′ and ACTB-R: 5′-[…]-3′. PCR data were analyzed using a modified relative expression software tool (REST) and the expression level of GDF15 gene was normalized to that of β-actin. For secreted GDF15 protein quantification, cell culture medium was collected after drug treatment and stored at − 20 °C until ELISA was performed using Human GDF-15 ELISA Kit (Abcam, ab155432) according to the manufacturer’s instruction. Resulting GDF15 concentrations were normalized to non-treated control and respective relative cell viability."}, "[2]": {"test_system": "GDF15", "experiment": "GDF15 gene expression of NCI-60 cancer cell lines treated with 15 anticancer drugs (public data, linear regression)", "settings": "data ref 34; for induction of GDF15 on average: NCI-60 cancer cell lines; for ratio of responsive cell lines (GDF15 induction): all NCI-60 cell lines, responsive: slope > 0.02 and R-squared > 0.5 within 24 h", "description": "To get further insights into how chemotherapy influences GDF15 expression in cancer, we analyzed public gene expression data of NCI-60 cancer cell lines treated with 15 different anticancer drugs. We used linear regression to quantify the cell line’s drug-specific responsiveness regarding GDF15 induction and categorized the cell lines as “responsive” or “resistant”. Comparing the number of responsive cell lines per drug, we found the ratio of responsive cell lines ranged from 4% for sirolimus to 71% for sorafenib (Supplementary Figure S2). Drugs with DNA damaging properties tended to induce GDF15 more strongly than drugs with other modes of action.\nFigure 3 NCI-60 cell line clustering. (A) Hierarchically clustered correlation matrix of GDF15 gene expression levels by NCI-60 cell lines upon 15 drug treatments. Pearson correlation coefficients were calculated evaluating linear regression slope of GDF15 expression within the first 24 h of drug treatment. Clustering of cell lines was performed using Weighted Pair Group Method with Arithmetic Mean (WPGMA) algorithm based on Pearson correlation coefficients. Four cell line clusters were identified. Tissue types of cell lines are color coded. (B) Drug-specific fraction of responsive NCI-60 cell lines in each identified cell line cluster for 15 anticancer drugs. Responsiveness was assumed when linear regression slope of GDF15 expression within 24 h of drug treatment was > 0.02 and R-squared > 0.5. (C) Predicted basally activated or inhibited pathways for the cell line cluster based on identified differences in gene expression.\nWe obtained basal gene expression values and mutational status of all cancer cell lines from our in-house cancer cell line database. Gene expression data of NCI-60 after compound treatment, basal protein expression, drug sensitivity data, gene dependency data, metabolite expression and compound specifications such as IC50 values and modes of action were collected from different studies and data bases, as described in the supplementary information.\nEach NCI-60 cell line was assigned to an array containing 15 drug-specific linear regression slopes of GDF15 mean fold-change. We calculated the Pearson correlation coefficient for every cell line pair to build a 60 × 60 correlation matrix. For agglomerative hierarchical clustering, we applied a “Weighted Pair Group Method with Arithmetic Mean” (WPGMA) algorithm to the resulting correlation matrix. The identified clusters represent groups of cell lines that are closely positioned to each other in this 15-dimensional data set and therefore have more similarities regarding GDF15 expression upon treatment with the 15 drugs compared to cell lines of other clusters.\nSupplementary Materials and Methods\nData collection of cancer cell line properties\nGene expression data of NCI-60 upon treatment with 15 anticancer compounds were collected from NCI-\n60 Transcriptional Pharmacodynamics Workbench 11. […]"}, "[3]": {"test_system": "GDF15", "experiment": "Doxorubicin-induced GDF15 secretion in hiPSC-CMs, simultaneous treatment with BET inhibitors (ELISA)", "settings": "simultaneous 100 nM doxorubicin and 0.1 to 1000 nM BET inhibitor, 48 h", "description": "(§3) Host cells are known to contribute to elevated GDF15 levels in cachexia patients when exposed to drug toxicity. […] We plotted GDF15 fold-changes against the respective reported half maximal inhibitory concentrations (IC50) of each BET inhibitor for BRD2, BRD3 and BRD4, whenever available. GDF15 fold-change thereby meant the ratio of GDF15 expression induced by doxorubicin only and doxorubicin combined with BET inhibitor normalized to cell viability.\nas §1, §2\nSupplementary Figure S6. (A) Fold-change of GDF15 secretion by hiPSC-CMs after simultaneous\ntreatment with doxorubicin and seven BET Inhibitors for 48 h. Normalized to cell viability and non-treated […]"}, "[4]": {"test_system": "GDF15", "experiment": "Doxorubicin-induced GDF15 mRNA expression in hiPSC-CMs, successive treatment with BET inhibitors (qPCR)", "description": "as §3, §1\nas §2, with “β-actin.” for “β-actin. For secreted GDF15 protein quantification, cell culture medium was collected after drug treatment and stored at − 20 °C until ELISA was performed using Human GDF-15 ELISA Kit (Abcam, ab155432) according to the manufacturer’s instruction. Resulting GDF15 concentrations were normalized to non-treated control and respective relative cell viability.”"}}}
{"smiles": "COc1cc(NS(C)(=O)=O)ccc1Nc1c2ccccc2nc2ccccc12", "note": "[Amsacrine]", "values": [{"measurement": "fold increase of media concentration of GDF15", "setting": "[1]", "value": "more than threefold"}]}
{"smiles": "CC(C)C[C@H](NC(=O)[C@H](Cc1ccccc1)NC(=O)c1cnccn1)B(O)O", "note": "[Bortezomib]", "values": [{"measurement": "fraction of responsive cell lines in cluster B", "setting": "[2]; NCI-60 cluster B", "value": "all"}]}
{"smiles": "Cc1sc2c(c1C)C(c1ccc(Cl)cc1)=N[C@@H](CC(N)=O)c1nnc(C)n1-2", "note": "[CPI203]", "values": [{"measurement": "effect on doxorubicin-induced GDF15 overexpression (secretion)", "setting": "[3]", "value": "suppressed"}]}
{"smiles": "CC[C@@]1(O)C(=O)OCc2c1cc1n(c2=O)Cc2cc3ccccc3nc2-1", "note": "[Camptothecin]", "values": [{"measurement": "fold increase of media concentration of GDF15", "setting": "[1]", "value": "more than threefold"}]}
{"smiles": "COc1cccc2c1C(=O)c1c(O)c3c(c(O)c1C2=O)C[C@@](O)(C(C)=O)C[C@@H]3O[C@H]1C[C@H](N)[C@H](O)[C@H](C)O1", "note": "[Daunorubicin]", "values": [{"measurement": "GDF15 protein concentration", "setting": "[1]", "value": "exceeded the upper limit of quantification"}]}
{"smiles": "COc1cccc2c1C(=O)c1c(O)c3c(c(O)c1C2=O)C[C@@](O)(C(=O)CO)C[C@@H]3O[C@H]1C[C@H](N)[C@H](O)[C@H](C)O1", "note": "[Doxorubicin]", "values": [{"measurement": "increase of GDF15 expression on RNA level", "setting": "[4]; doxorubicin treatment (20 or 200 nM)", "value": "up to sevenfold"}, {"measurement": "fraction of responsive cell lines in cluster C", "setting": "[2]; NCI-60 cluster C", "value": 63.6, "unit": "%"}, {"measurement": "fold increase of media concentration of GDF15", "setting": "[1]", "value": "more than threefold"}]}
{"smiles": "COc1cc([C@@H]2c3cc4c(cc3[C@@H](O[C@@H]3O[C@@H]5CO[C@@H](C)O[C@H]5[C@H](O)[C@H]3O)[C@H]3COC(=O)[C@H]23)OCO4)cc(OC)c1O", "note": "[Etoposide]", "values": [{"measurement": "fold increase of media concentration of GDF15", "setting": "[1]", "value": "more than threefold"}]}
{"smiles": "COc1cc2c(cc1-c1c(C)noc1C)ncc1[nH]c(=O)n([C@H](C)c3ccccn3)c12", "note": "[I-BET151]", "values": [{"measurement": "effect on doxorubicin-induced GDF15 overexpression (secretion)", "setting": "[3]", "value": "suppressed"}]}
{"smiles": "CC(=O)[C@]1(O)Cc2c(O)c3c(c(O)c2[C@@H](O[C@H]2C[C@H](N)[C@H](O)[C@H](C)O2)C1)C(=O)c1ccccc1C3=O", "note": "[Idarubicin]", "values": [{"measurement": "GDF15 protein concentration", "setting": "[1]", "value": "exceeded the upper limit of quantification"}, {"measurement": "fold increase of media concentration of GDF15", "setting": "[1]", "value": "more than threefold"}]}
{"smiles": "Cc1sc2c(c1C)C(c1ccc(Cl)cc1)=N[C@@H](CC(=O)Nc1ccc(O)cc1)c1nnc(C)n1-2", "note": "[OTX015]", "values": [{"measurement": "effect on doxorubicin-induced GDF15 overexpression (mRNA)", "setting": "[4]; BET inhibitor given subsequently to doxorubicin", "value": "suppressed"}, {"measurement": "effect on doxorubicin-induced GDF15 overexpression (secretion)", "setting": "[3]", "value": "suppressed"}]}
{"smiles": "COc1ccccc1S(=O)(=O)Nc1ccc2c(c1)CN(C)C(=O)N2", "note": "[PFI-1]", "values": [{"measurement": "effect on doxorubicin-induced GDF15 overexpression (secretion)", "setting": "[3]", "value": "suppressed"}]}
{"smiles": "CCN(CC)CCNC(=O)c1c(C)[nH]c(/C=C2\\C(=O)Nc3ccc(F)cc32)c1C", "note": "[Sunitinib]", "values": [{"measurement": "induction of GDF15 on average", "setting": "[2]", "value": "did not lead to notable GDF15 regulation"}]}
{"smiles": "Nc1ncn([C@@H]2O[C@H](CO)[C@@H](O)[C@H]2O)c(=O)n1", "note": "[azacytidine]", "values": [{"measurement": "fraction of responsive cell lines in cluster D", "setting": "[2]; NCI-60 cluster D", "value": "all"}]}
{"smiles": "CO[C@H]1C[C@@H]2CC[C@@H](C)[C@@](O)(O2)C(=O)C(=O)N2CCCC[C@H]2C(=O)O[C@H]([C@H](C)C[C@@H]2CC[C@@H](O)[C@H](OC)C2)CC(=O)[C@H](C)/C=C(\\C)[C@@H](O)[C@@H](OC)C(=O)[C@H](C)C[C@H](C)/C=C/C=C/C=C/1C", "note": "[sirolimus]", "values": [{"measurement": "ratio of responsive cell lines (GDF15 induction)", "setting": "[2]", "value": 4, "unit": "%"}]}
{"smiles": "CNC(=O)c1cc(Oc2ccc(NC(=O)Nc3ccc(Cl)c(C(F)(F)F)c3)cc2)ccn1", "note": "[sorafenib]", "values": [{"measurement": "induction of GDF15 on average", "setting": "[2]", "value": "threefold"}, {"measurement": "fraction of responsive cell lines in cluster A", "setting": "[2]; NCI-60 cluster A", "value": "all"}, {"measurement": "ratio of responsive cell lines (GDF15 induction)", "setting": "[2]", "value": 71, "unit": "%"}]}
